Calls of active or inactive are those of the source. The calls are words filed in the database; no cut-off is given here.
What was measured:
A2780 = experiment: Cytotoxicity against human A2780 cells assessed as reduction in cell viability at 20 ug/ml after 72 hrs by CyQuant dye based assay; format: functional
Homo sapiens = species: Homo sapiens; experiment: Inhibition of TNFalpha-induced NFkappaB activation in HEK293 cells at 40 uM after 6 hrs by luciferase reporter gene assay relative to control; format: cell-based
[1] = Inhibition of TNFalpha-induced NFkappaB activation in HEK293 cells after 6 hrs by luciferase reporter gene assay; format: cell-based; settings: Homo sapiens, HEK293, 6 h
Escherichia coli = experiment: Antibacterial activity against Escherichia coli; format: functional
Pseudomonas aeruginosa = experiment: Antibacterial activity against Pseudomonas aeruginosa; format: functional
Staphylococcus aureus = experiment: Antibacterial activity against Staphylococcus aureus; format: functional
Bacillus subtilis = experiment: Antibacterial activity against Bacillus subtilis; format: functional
Penicillium chrysogenum = experiment: Antifungal activity against Penicillium chrysogenum; format: functional
Aspergillus niger = experiment: Antifungal activity against Aspergillus niger; format: functional
Paecilomyces lilacinus = experiment: Antifungal activity against Paecilomyces lilacinus; format: functional; settings: Purpureocillium lilacinum
Fusarium graminearum = experiment: Antifungal activity against Fusarium graminearum; format: functional
Sus scrofa = species: Sus scrofa; experiment: Displacement of [3H]MLA from alpha7* nAChR in pig adrenal membranes; format: cell membranes
[2] = biological target: Neuronal acetylcholine receptor; alpha4/beta2 (Rattus norvegicus) (UniProt P09483+P12390); experiment: Displacement of [3H]epibatidine from alpha4beta2* nAChR in Sprague-Dawley rat forebrain membranes; settings: Membrane
[3] = biological target: Neuronal acetylcholine receptor; alpha3/beta4 (Rattus norvegicus) (UniProt P04757+P12392); experiment: Displacement of [3H]epibatidine from alpha3beta4* nAChR in Sprague-Dawley rat forebrain membranes; settings: Membrane
Tetronarce californica = experiment: Displacement of [3H]epibatidine from (alpha1)2beta1gammadelta nAChR in Torpedo californica electroplax membranes

COc1cc(/C=C/C(=O)NCCCCNC(N)=O)ccc1O
Activity (A2780): inactive | inhibition (Homo sapiens): > 60% | IC50 [1]: 36 µM | Activity (Escherichia coli): inactive | Activity (Pseudomonas aeruginosa): inactive | Activity (Staphylococcus aureus): inactive | Activity (Bacillus subtilis): inactive | Activity (Penicillium chrysogenum): inactive | Activity (Aspergillus niger): inactive | Activity (Paecilomyces lilacinus): inactive | Activity (Fusarium graminearum): inactive | inhibition (Sus scrofa): inactive | inhibition [2]: inactive | inhibition [3]: inactive | inhibition (Tetronarce californica): inactive

COc1cc([C@H]2Oc3c(OC)cc(/C=C/C(=O)NCCCCNC(N)=O)cc3[C@@H]2CO)ccc1O
Activity (A2780): inactive | inhibition (Homo sapiens): inactive | Activity (Escherichia coli): inactive | Activity (Pseudomonas aeruginosa): inactive | Activity (Staphylococcus aureus): inactive | Activity (Bacillus subtilis): inactive | Activity (Penicillium chrysogenum): inactive | Activity (Aspergillus niger): inactive | Activity (Paecilomyces lilacinus): inactive | Activity (Fusarium graminearum): inactive | inhibition (Sus scrofa): inactive | inhibition [2]: inactive | inhibition [3]: inactive | inhibition (Tetronarce californica): inactive

— ChEMBL document CHEMBL4043237, “Heliotropiumides A and B, new phenolamides with N-carbamoyl putrescine moiety from Heliotropium foertherianum collected in Hawaii and their biological activities” (Bioorg Med Chem Lett, 2017)
